Each structure is given as a SMILES string.

Chain of S. pneumoniae Topoisomerase IV ATPase (ParE) (Q59961 whole entry): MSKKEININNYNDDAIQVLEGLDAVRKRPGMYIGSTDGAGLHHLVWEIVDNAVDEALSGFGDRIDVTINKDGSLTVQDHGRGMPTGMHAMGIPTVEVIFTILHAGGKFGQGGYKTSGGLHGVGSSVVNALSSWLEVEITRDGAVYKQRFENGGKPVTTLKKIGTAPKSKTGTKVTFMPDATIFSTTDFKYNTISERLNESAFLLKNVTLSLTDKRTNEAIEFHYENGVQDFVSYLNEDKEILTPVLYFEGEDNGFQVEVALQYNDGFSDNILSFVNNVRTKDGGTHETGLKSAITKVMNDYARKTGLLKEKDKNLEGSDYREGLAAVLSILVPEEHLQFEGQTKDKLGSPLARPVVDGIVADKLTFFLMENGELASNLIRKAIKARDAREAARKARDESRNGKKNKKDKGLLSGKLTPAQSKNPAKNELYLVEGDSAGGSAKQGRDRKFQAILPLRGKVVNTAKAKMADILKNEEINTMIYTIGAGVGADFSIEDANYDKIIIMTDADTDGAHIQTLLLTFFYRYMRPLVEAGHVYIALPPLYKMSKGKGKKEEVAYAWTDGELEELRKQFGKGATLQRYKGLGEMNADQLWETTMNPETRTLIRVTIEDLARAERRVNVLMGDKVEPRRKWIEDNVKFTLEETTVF

The target in this assay is S. pneumoniae Topoisomerase IV ATPase (ParE) (Streptococcus pneumoniae serotype 4, UniProt Q59961). In words: S. pneumoniae Topoisomerase IV ATPase inhibition. Conditions: values marked * are an average of two or more data points, read-out: % Inh (13 μM) of S. pneumoniae Topoisomerase IV ATPase. The class given is biochemical. Put shortly:
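Phosphate-release ATPase assay: 1.25 nM ParE, 160 μM ATP, DNA-stimulated. Quench with malachite green/molybdate in 1 M HCl, read 650 nm; IC50 from 10-point dose series.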
Turning to `COc1ncc(-c2cnc(Nc3cc(C)cc(F)c3)nc2-n2nc(C(F)(F)F)cc2C)cc1C(=O)O` [Example 755, 5-{2-[(3-fluoro-5-methylphenyl)amino]-4-[5-methyl-3-(trifluoromethyl)-1H-pyrazol-1-yl]pyrimidin-5-yl}-2-methoxypyridine-3-carboxylic acid], the inhibition at 13 µM stood at 100%. Turning to `CCCS(=O)(=O)NC(=O)c1cc(-c2cnc(Nc3cc(OC)cc(OC)c3)nc2-n2nc(C(F)(F)F)cc2C)cnc1OC` [Example 817, 5-{2-[(3,5-dimethoxyphenyl)amino]-4-[5-methyl-3-(trifluoromethyl)-1H-pyrazol-1-yl]pyrimidin-5-yl}-2-methoxy-N-(propylsulfonyl)pyridine-3-carboxamide], the inhibition at 13 µM came to 100%.

Consider `O=C(O)/C=C/c1cccc(-c2cnc(Nc3ccc(F)c(Cl)c3)nc2N2CCOC(CO)C2)c1` (centres unmarked) [Example 1059], for which the inhibition at 13 µM was 85%. As to `Fc1ccc(Nc2ncc(-c3cncnc3)c(NCCc3cccnc3)n2)cc1Cl` [Example 45, N^2-(3-chloro-4-fluorophenyl)-N^4-(2-pyridin-3-ylethyl)-5-pyrimidin-5-ylpyrimidine-2,4-diamine], the inhibition at 13 µM is 81.9%.

Regarding `CCOC(=O)c1cncc(-c2cnc(Nc3ccc(F)c(Cl)c3)nc2NCCc2ccccn2)c1` [Example 101, 5-[2-(3-Chloro-4-fluoro-phenylamino)-4-(2-pyridin-2-yl-ethylamino)-pyrimidin-5-yl]-nicotinic acid ethyl ester], the inhibition at 13 µM amounted to 8.69%. As for `O=C(O)c1cncc(-c2cnc(Nc3ccc(F)c(Cl)c3)nc2N[C@H]2CC[C@H](O)CC2)c1` [Example 255, 5-[2-[(3-chloro-4-fluorophenyl)amino]-4-[(4-hydroxycyclohexyl)-amino]pyrimidin-5-yl]pyridine-3-carboxylic acid], the inhibition at 13 µM is 72.8%.

As to `CONC(=O)c1cncc(-c2cnc(Nc3ccc(F)c(Cl)c3)nc2-n2nc(C(F)F)cc2C)c1` [Example 546, 5-{2-[(3-chloro-4-fluorophenyl)amino]-4-[3-(difluoromethyl)-5-methyl-1H-pyrazol-1-yl]pyrimidin-5-yl}-N-methoxypyridine-3-carboxamide], the inhibition at 13 µM worked out at 100%. The figure for `Cc1cc(C)cc(Nc2ncc(-c3cc(C(=O)O)c(=O)n(C)c3)c(-n3nc(C(F)(F)F)cc3C)n2)c1` [Example 1166, 5-(2-(3,5-dimethylphenylamino)-4-(5-methyl-3-(trifluoromethyl)-1H-pyrazol-1-yl)pyrimidin-5-yl)-1-methyl-2-oxo-1,2-dihydropyridine-3-carboxylic acid] is 100%; for `O=C(c1cccc(-c2cnc(Nc3ccc(F)c(Cl)c3)nc2-n2ccc(C(F)(F)F)n2)c1)N1CCOCC1` [Example 1151, (3-(2-(3-chloro-4-fluorophenylamino)-4-(3-(trifluoromethyl)-1H-pyrazol-1-yl)pyrimidin-5-yl)phenyl)(morpholino)methanone] it is 100%. Take `COc1cc(Nc2ncc(-c3cnc(OC)c(C(=O)NS(=O)(=O)c4c(C)noc4C)c3)c(-n3nc(C(F)(F)F)cc3C)n2)cc(OC)c1` [Example 836, 5-{2-[(3,5-dimethoxyphenyl)amino]-4-[5-methyl-3-(trifluoromethyl)-1H-pyrazol-1-yl]pyrimidin-5-yl}-N-[(3,5-dimethyl-1,2-oxazol-4-yl)sulfonyl]-2-methoxypyridine-3-carboxamide]: the inhibition at 13 µM came out at 94%. In the case of `CCCNc1nc(Nc2ccc(F)c(Cl)c2)ncc1-c1cncnc1` [Example 33, N^2-(3-chloro-4-fluorophenyl)-N^4-propyl-5-pyrimidin-5-ylpyrimidine-2,4-diamine], the inhibition at 13 µM turned out to be 81%. Take `COc1cc(C)cc(Nc2ncc(-c3cc(C(=O)NS(C)(=O)=O)c(=O)n(C)c3)c(-n3ccc(C(F)(F)F)n3)n2)c1` [Example 1173, 5-{2-[(3-methoxy-5-methylphenyl)amino]-4-[3-(trifluoromethyl)-1H-pyrazol-1-yl]pyrimidin-5-yl}-1-methyl-N-(methylsulfonyl)-2-oxo-1,2-dihydropyridine-3-carboxamide]: the inhibition at 13 µM was found to be 100%. With `CCN(CC)S(=O)(=O)c1cncc(-c2cnc(Nc3ccc(F)c(Cl)c3)nc2-n2ccc(C(F)(F)F)n2)c1` [Example 1033, 5-(2-(3-Chloro-4-fluorophenylamino)-4-(3-(trifluoromethyl)-1H-pyrazol-1-yl)pyrimidin-5-yl)-N,N-diethylpyridine-3-sulfonamide], the inhibition at 13 µM was 20%. In the case of `COc1cc(Nc2ncc(-c3cnc(OC)c(C(=O)NS(=O)(=O)CCCN4CCOCC4)c3)c(-n3ccc(C(F)(F)F)n3)n2)cc(OC)c1` [Example 820, 5-{2-[(3,5-dimethoxyphenyl)amino]-4-[3-(trifluoromethyl)-1H-pyrazol-1-yl]pyrimidin-5-yl}-2-methoxy-N-{[3-(morpholin-4-yl)propyl]sulfonyl}pyridine-3-carboxamide], the inhibition at 13 µM was 100%. Under `Cc1cc(-c2nccs2)nn1-c1nc(Nc2ccc(F)c(Cl)c2)ncc1-c1cncc(C(N)=O)c1` [Example 537, 5-{2-[(3-chloro-4-fluorophenyl)amino]-4-[5-methyl-3-(1,3-thiazol-2-yl)-1H-pyrazol-1-yl]pyrimidin-5-yl}pyridine-3-carboxamide] stands 100%; under `COCCCNc1nc(Nc2ccc(F)c(Cl)c2)ncc1-c1nc(-c2ccccn2)c(C(=O)O)s1` [Example 511, 2-{2-[(3-chloro-4-fluorophenyl)amino]-4-[(3-methoxypropyl)amino]pyrimidin-5-yl}-4-(pyridin-2-yl)-1,3-thiazole-5-carboxylic acid], 100%; under `COc1cc(Nc2ncc(-c3cncc(C(=O)O)c3)c(-n3nc(C(F)F)cc3C)n2)cc(OC)c1` [Intermediate 1126, 5-(4-(3-(difluoromethyl)-5-methyl-1H-pyrazol-1-yl)-2-(3,5-dimethoxyphenylamino)pyrimidin-5-yl)nicotinic acid], 100%. For the molecule `O=C(O)c1cncc(-c2cnc(Nc3ccc(F)c(Cl)c3)nc2NCCOc2ccccc2)c1` [Example 239, 5-[2-[(3-chloro-4-fluorophenyl)amino]-4-(2-phenoxyethylamino)-pyrimidin-5-yl]pyridine-3-carboxylic acid], the inhibition at 13 µM is 85.1%.

As for `CC(=O)c1cccc(Nc2ncc(-c3cccc(/C=C/C(=O)O)c3)c(-n3ccc(C(F)(F)F)n3)n2)c1` [Example 688, (2E)-3-(3-{2-[(3-acetylphenyl)amino]-4-[3-(trifluoromethyl)-1H-pyrazol-1-yl]pyrimidin-5-yl}phenyl)prop-2-enoic acid], the inhibition at 13 µM is 99%. For `CNc1ncc(-c2cnc(Nc3cc(OC)cc(OC)c3)nc2-n2ccc(C(F)(F)F)n2)cc1C(=O)O` [Example 586, 5-(2-(3,5-dimethoxyphenylamino)-4-(3-(trifluoromethyl)-1H-pyrazol-1-yl)pyrimidin-5-yl)-2-(methylamino)nicotinic acid], the inhibition at 13 µM worked out at 100%. As to `CCOC(=O)c1cncc(-c2cnc(Nc3ccc(F)c(Cl)c3)nc2N2CCOCC2)c1` [Example 144, ethyl 5-(2-(3-chloro-4-fluorophenylamino)-4-morpholinopyrimidin-5-yl)nicotinate], the inhibition at 13 µM is 76.4%.

As for `CNC(=O)/C=C/c1cccc(-c2cnc(Nc3cc(OC)cc(C(F)(F)F)c3)nc2NCCc2ccncc2)c1` [Example 372], the inhibition at 13 µM turned out to be 80.9%.

Regarding `COc1cc(Nc2ncc(-c3cnc(OCCNC(C)=O)c(C(=O)O)c3)c(-n3nc(C(F)(F)F)cc3C)n2)cc(OC)c1` [Example 957, 2-(2-acetamidoethoxy)-5-(2-(3,5-dimthoxyphenylamino)-4-(5-methyl-3-(trifluoromethyl)-1H-pyrazol-1-yl)pyrimidin-5-yl)nicotinic acid], the inhibition at 13 µM is 100%. Turning to `COc1cc(-c2cnc(Nc3ccc(F)c(Cl)c3)nc2NCCCN(C)C)cc(OC)c1OC` [Example 10, N^2-(3-chloro-4-fluorophenyl)-N^4-(3-(dimethylamino)propyl)-5-(3,4,5-trimethoxyphenyl)pyrimidin-2,4-diamine], the inhibition at 13 µM turned out to be 99.3%. Under `COc1cc(F)cc(Nc2ncc(-c3cnc(OC)c(C(=O)NS(C)(=O)=O)c3)c(-n3ccc(C(F)(F)F)n3)n2)c1` [Example 897, 5-(2-(3-fluoro-5-methoxyphenylamino)-4-(3-(trifluoromethyl)-1H-pyrazol-1-yl)pyrimidin-5-yl)-2-methoxy-N-(methylsulfonyl)nicotinamide] stands 100%. In the case of `COc1ncc(-c2cnc(Nc3cc(C)cc(C)c3)nc2-n2nc(C(F)(F)F)cc2C)cc1C(=O)NS(=O)(=O)C(C)C` [Example 827, 5-{2-[(3,5-dimethylphenyl)amino]-4-[5-methyl-3-(trifluoromethyl)-1H-pyrazol-1-yl]pyrimidin-5-yl}-2-methoxy-N-(propan-2-ylsulfonyl)pyridine-3-carboxamide], the inhibition at 13 µM stood at 100%. Consider `Cc1cc(C(F)(F)F)nn1-c1nc(Nc2ccc(F)c(Cl)c2)ncc1-c1cnc(OC2CCN(C)C2)c(C(=O)O)c1` (centres unmarked) [Example 787, 5-{2-[(3-chloro-4-fluorophenyl)amino]-4-[5-methyl-3-(trifluoromethyl)-1H-pyrazol-1-yl]pyrimidin-5-yl}-2-[(1-methylpyrrolidin-3-yl)oxy]pyridine-3-carboxylic acid], for which the inhibition at 13 µM amounted to 97%. Regarding `CN(C)CCCNc1nc(Nc2ccc(F)c(Cl)c2)ncc1-c1cncc(-c2nnn[nH]2)c1` [Example 938, 5-(5-(1H-tetrazol-5-yl)pyridin-3-yl)-N2-(3-chloro-4-fluorophenyl)-N4-(3-(dimethylamino)propyl)pyrimidin-2,4-diamine], the inhibition at 13 µM worked out at 91%.

As to `CONC(=O)c1cc(-c2cnc(Nc3cc(OC)cc(OC)c3)nc2-n2nc(C(F)(F)F)cc2C)cnc1OC` [Example 810, 5-{2-[(3,5-dimethoxyphenyl)amino]-4-[5-methyl-3-(trifluoromethyl)-1H-pyrazol-1-yl]pyrimidin-5-yl}-N,2-dimethoxypyridine-3-carboxamide], the inhibition at 13 µM turned out to be 100%.
